Test results reported in patent US20240150322A1, “CDK9 Inhibitors” (Biolexis Therapeutics, Inc., priority 2022, published 2024).
pIC50, pKd: −log10 of the molar value.

Key:
[1] = tested on: Prostate cancer cells; assay: Colony formation assay 2; type: cell-based; conditions: 0.123 to 10 μM for 72 hours
[2] = molecular target: TAOK3 (Homo sapiens, UniProt Q9H2K8); assay: scanMAX panel and Kd follow-up; type: binding
[3] = tested on: C4-2; assay: 2D CellTiter-Glo cell viability assay; type: cell-based, human
Method: (§1) CellTiter-Glo® 2.0 Luminescent cell viability assay reagent was purchased from Promega and 22Rv1, LASCPC-01, C4-2, C4-2B and NCI-H660, DU-145, PC-3 and LNCap cell lines were obtained from ATCC and a clinical core facility at Huntsman Cancer Institute. […] The results of cell viability were obtained and IC50 values were calculated (see Table 5, below) showing sub-micromolar cell killing of these prostate cancer cells.

[4] = Pharmacokinetic study in rat; conditions: in vivo, po
[5] = tested on: LASCPC-01; assay: Annexin V/7-AAD apoptosis assay; type: cell-based
[6] = tested on: RWPE-1 Normal Prostate Cells; assay: CellTiter-Glo 2D cell viability assay in normal prostate cells; type: cell-based; conditions: Homo sapiens; RWPE-1 normal prostate cells, 72 hours
Method: (§2) Multiplexing the LDH-Glo Cytotoxicity Assay and CellTiter-Glo 2D Cell Viability Assay. […] Change in toxicity was measured using the LDH-Glo Cytotoxicity Assay by combining 50 μL diluted samples with 50 μL LDH Detection Reagent and recording luminescence after 1 hour incubation. After samples were removed for LDH measurement, an equal volume of CellTiter Glo 2D Reagent was added to the remaining cell suspension and luminescence was recorded after 30-minute incubation period.

[7] = tested on: RWPE-1 Normal Prostate Cells; assay: LDH-Glo cytotoxicity assay in normal prostate cells; type: cell-based; conditions: Homo sapiens, 72 hours
Method: as §2

[8] = tested on: LNCap; assay: 2D CellTiter-Glo cell viability assay; type: cell-based; conditions: Homo sapiens, 72 hours
Method: (§3) CellTiter-Glo® 2.0 Luminescent cell viability assay reagent was purchased from Promega and 22Rv1 and LASCPC-01 cell lines were purchased from ATCC. […] An equal volume of CellTiter-Glo 2D Reagent was added to the cell suspensions and luminescence was recorded after 30-minute incubation period. […] FIG. 2 illustrates cellular antiproliferative efficacy of a benchmark CDK9 inhibitor AD-4573 on six prostate cancer cell lines over various concentrations.
as §1

[9] = tested on: 22Rv1; assay: 2D CellTiter-Glo cell viability assay; type: cell-based; conditions: Homo sapiens; 22Rv1, 72 hours
Method: as §3, §1

[10] = tested on: DU-145; assay: 2D CellTiter-Glo cell viability assay; type: cell-based; conditions: Homo sapiens; DU-145, 72 hours
Method: as §3, §1

[11] = tested on: NCI-H660; assay: 2D CellTiter-Glo cell viability assay; type: cell-based; conditions: NCI-H660, 72 hours
Method: as §3, §1

[12] = tested on: LASCPC-01; assay: 2D CellTiter-Glo cell viability assay; type: cell-based; conditions: LASCPC-01, 72 hours
Method: as §3, §1

[13] = molecular target: CDK9 + Cyclin T1 (Homo sapiens, UniProt P50750); assay: cell-based
[14] = tested on: C4-2 human neuroendocrine prostate cancer xenograft; assay: In vivo tumor efficacy study 3, C4-2 xenograft
[15] = molecular target: ERK8 (Homo sapiens, UniProt Q8TD08); assay: scanMAX panel and Kd follow-up; type: binding
[16] = molecular target: Haspin (Homo sapiens, UniProt Q8TF76); assay: scanMAX panel and Kd follow-up; type: binding
[17] = molecular target: T1, CDK9/CycT1 (Homo sapiens, UniProt P50750); assay: ADP-Glo kinase assay; type: biochemical
T1 construct: purchased SignalChem
Method: ADP-Glo assay kit was purchased from Promega and the CDK9/CycT1 protein and PDKtide substrate were purchased from SignalChem. […] The reaction was started by pre-incubating 4 μL of protein (20 nM), 2 μL of substrate (100 μM), and 2 μL of serial diluted drug in 1× assay buffer (50 mM HEPES, 3 mM MgCl2, 3 mM MnCl2, and 1 mM DTT) for 30 minutes. After pre-incubating, 4 μL of ATP (1 μM) was added to each well and incubated for an additional 90 minutes. The ADP-Glo Reagent (10 μL) and Kinase Detection Reagent (20 μL) were added to each well and incubated as recommended by Promega. The reaction was quantified by measuring luminescence and the IC50 was calculated using GraphPad Prism software.

[18] = molecular target: CDK2/cyclinA (Homo sapiens, UniProt P24941); assay: CDK family kinase profiling, radioisotope-based assay (33P); type: biochemical; set-up: purchased Reaction Biology; conditions: read-out: 10-dose IC50
Method: (§4) CDKs family kinases profiling assays were performed with DiscoveRx Matrix of Kds KINOMEscan (KdELECT) and Reaction Biology using miniaturized radioisotope-based assay platform (^33P). IC50 value estimated based on the best curve fitting available.

[19] = molecular target: CDK3/cyclinE (Homo sapiens, UniProt Q00526); assay: as above; type: biochemical; set-up: purchased Reaction Biology; conditions: read-out: 10-dose IC50
Method: as §4

[20] = tested on: 22Rv1; assay: Annexin V/7-AAD apoptosis assay; type: cell-based

ERK8, sequence (Q8TD08 whole entry): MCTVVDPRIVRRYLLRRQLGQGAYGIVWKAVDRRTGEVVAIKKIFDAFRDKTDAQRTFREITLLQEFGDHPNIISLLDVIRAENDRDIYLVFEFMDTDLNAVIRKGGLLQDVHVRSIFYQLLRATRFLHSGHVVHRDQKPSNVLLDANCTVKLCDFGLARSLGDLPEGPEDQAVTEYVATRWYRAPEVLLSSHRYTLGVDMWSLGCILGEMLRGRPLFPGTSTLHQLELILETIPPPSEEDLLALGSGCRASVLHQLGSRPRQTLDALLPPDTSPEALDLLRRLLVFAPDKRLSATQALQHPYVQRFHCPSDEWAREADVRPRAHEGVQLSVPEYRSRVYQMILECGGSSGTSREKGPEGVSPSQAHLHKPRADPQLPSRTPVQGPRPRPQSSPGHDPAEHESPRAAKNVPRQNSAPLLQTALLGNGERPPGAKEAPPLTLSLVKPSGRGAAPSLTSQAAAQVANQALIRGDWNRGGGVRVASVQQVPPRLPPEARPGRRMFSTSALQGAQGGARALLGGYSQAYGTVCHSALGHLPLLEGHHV
Haspin, sequence (Q8TF76 whole entry): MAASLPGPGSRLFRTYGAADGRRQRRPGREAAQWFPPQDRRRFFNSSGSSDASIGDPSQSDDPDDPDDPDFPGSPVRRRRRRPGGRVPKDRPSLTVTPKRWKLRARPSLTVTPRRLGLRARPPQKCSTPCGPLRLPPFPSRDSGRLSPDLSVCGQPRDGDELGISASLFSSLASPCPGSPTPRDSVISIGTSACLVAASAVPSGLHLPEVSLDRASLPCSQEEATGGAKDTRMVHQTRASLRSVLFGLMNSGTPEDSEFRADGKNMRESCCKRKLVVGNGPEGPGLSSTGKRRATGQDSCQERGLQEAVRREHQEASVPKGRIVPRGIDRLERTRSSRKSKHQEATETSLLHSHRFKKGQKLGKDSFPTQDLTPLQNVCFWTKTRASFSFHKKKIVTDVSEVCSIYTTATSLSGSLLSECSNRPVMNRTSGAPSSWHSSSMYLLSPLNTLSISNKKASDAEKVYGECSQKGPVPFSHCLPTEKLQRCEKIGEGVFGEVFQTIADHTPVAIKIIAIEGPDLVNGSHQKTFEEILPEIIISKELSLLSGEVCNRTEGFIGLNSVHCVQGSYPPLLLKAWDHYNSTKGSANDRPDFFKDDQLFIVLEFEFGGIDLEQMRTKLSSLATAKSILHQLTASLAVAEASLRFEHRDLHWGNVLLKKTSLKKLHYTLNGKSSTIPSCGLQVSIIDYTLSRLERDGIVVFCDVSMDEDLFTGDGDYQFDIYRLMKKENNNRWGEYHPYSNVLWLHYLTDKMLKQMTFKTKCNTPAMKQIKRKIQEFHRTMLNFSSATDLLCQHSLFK
TAOK3, sequence (Q9H2K8 whole entry): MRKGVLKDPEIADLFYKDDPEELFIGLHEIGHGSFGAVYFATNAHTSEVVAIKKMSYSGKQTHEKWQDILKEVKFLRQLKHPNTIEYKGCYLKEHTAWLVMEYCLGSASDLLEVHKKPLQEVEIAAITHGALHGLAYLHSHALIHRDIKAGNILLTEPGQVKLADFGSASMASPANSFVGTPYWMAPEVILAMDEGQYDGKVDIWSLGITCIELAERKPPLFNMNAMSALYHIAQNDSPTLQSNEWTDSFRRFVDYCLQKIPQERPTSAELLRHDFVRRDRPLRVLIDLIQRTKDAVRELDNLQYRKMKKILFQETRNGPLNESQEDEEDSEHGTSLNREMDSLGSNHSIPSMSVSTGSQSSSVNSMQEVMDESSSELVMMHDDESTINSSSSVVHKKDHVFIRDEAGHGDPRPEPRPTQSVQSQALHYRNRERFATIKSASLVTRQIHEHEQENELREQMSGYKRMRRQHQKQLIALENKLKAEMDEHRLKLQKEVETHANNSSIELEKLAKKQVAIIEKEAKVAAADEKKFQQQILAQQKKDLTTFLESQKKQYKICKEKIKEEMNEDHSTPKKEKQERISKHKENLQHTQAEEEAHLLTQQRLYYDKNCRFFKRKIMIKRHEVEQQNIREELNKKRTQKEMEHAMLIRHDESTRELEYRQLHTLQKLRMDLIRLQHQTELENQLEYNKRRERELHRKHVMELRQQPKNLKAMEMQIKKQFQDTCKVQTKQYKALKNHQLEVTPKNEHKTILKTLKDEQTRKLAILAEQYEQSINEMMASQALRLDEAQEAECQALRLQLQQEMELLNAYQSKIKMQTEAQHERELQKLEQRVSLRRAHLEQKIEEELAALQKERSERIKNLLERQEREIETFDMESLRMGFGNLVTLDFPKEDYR
CDK9 + Cyclin T1, sequence (P50750 whole entry): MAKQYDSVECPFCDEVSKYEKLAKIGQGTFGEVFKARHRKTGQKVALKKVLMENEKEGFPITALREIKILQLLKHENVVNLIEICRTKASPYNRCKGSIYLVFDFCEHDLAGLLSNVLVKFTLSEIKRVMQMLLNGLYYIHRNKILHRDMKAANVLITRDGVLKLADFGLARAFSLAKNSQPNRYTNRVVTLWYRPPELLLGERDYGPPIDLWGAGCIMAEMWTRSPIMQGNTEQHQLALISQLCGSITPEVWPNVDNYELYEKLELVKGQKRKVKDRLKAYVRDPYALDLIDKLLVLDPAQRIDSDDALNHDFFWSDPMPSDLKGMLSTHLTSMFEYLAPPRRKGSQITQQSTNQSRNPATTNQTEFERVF
CDK9 + Cyclin T1, sequence (O60563 whole entry partner): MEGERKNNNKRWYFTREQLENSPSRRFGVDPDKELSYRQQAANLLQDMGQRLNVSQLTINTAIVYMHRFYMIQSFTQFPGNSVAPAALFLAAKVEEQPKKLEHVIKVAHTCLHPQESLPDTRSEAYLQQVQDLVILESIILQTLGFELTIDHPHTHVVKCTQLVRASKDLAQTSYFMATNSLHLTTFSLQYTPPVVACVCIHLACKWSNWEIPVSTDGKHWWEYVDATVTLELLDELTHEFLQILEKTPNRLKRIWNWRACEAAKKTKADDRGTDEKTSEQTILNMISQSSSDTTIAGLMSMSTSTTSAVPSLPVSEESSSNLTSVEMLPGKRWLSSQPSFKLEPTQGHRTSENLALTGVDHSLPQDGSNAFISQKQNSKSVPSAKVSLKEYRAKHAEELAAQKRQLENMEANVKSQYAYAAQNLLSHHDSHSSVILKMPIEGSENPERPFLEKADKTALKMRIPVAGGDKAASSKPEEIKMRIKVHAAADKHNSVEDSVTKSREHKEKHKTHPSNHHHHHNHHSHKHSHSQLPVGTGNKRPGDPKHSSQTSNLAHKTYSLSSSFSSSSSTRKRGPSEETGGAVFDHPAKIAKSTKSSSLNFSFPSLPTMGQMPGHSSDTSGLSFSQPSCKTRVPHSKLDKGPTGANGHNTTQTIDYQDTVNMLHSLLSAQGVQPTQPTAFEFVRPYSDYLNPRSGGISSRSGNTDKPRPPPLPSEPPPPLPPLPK
T1 sequence (P50750 whole entry): as the sequence (P50750 whole entry) above
T1 sequence (O60563 whole entry partner): as the sequence (O60563 whole entry partner) above
CDK3/cyclinE, sequence (Q00526 whole entry): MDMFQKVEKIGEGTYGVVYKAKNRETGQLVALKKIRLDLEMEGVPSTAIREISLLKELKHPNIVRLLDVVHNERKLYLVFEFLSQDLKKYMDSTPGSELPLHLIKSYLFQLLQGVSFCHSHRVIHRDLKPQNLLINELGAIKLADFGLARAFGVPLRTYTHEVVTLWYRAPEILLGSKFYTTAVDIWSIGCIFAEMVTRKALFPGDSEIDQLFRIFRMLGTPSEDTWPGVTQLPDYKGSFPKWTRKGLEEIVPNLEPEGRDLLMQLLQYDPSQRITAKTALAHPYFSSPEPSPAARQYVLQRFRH
CDK3/cyclinE, sequence (P24864 whole entry partner): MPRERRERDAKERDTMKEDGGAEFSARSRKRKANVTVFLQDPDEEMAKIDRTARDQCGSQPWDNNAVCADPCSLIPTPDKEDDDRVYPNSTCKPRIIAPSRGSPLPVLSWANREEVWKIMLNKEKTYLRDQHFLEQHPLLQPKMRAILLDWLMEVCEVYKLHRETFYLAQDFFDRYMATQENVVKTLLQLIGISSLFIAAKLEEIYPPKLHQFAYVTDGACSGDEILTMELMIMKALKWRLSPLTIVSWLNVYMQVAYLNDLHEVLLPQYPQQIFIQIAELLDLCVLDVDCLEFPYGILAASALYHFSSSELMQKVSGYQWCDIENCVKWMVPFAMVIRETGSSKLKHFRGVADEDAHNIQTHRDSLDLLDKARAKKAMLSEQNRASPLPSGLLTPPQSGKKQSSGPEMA

Q: For `CC(C)c1c2cc(-c3ccnc(N[C@H]4CC[C@H](N)C4)n3)ccc2nn1C` [Compound I-2, (1S,3S)-[3-[4-(3-isopropyl-2-methylindazol-5-yl)pyrimidin-2-yl]aminocyclopentan-1-yl]-1,3-diamine], which colony formation [1] is on record?
A: The colony formation was “complete inhibition of colony formation”.

Q: And the pKd ([2]; TAOK3)?
A: Its pKd is 8.04.

Q: And the remaining binding at 1 µM ([2]; TAOK3, 1 μM, read-out: % of control activity)?
A: The remaining binding at 1 µM was 0 to 1%.

Q: What about the pIC50 ([3]; C4-2, 72 hours) of the same compound?
A: Its pIC50 is 7.55.

Q: And the pIC50 ([3]; Homo sapiens, C4-2, 72 h)?
A: Its pIC50 is 7.55.

Q: What about the bioavailability [4] of the same compound?
A: The bioavailability was 38%.

Q: And the “apoptosis by Annexin V/7-AAD staining” value ([5]; LASCPC-01)?
A: The value was “increased apoptosis in a dose dependent manner”.

Q: What about the cell death ([5]; LASCPC-01, treated for 72 hours) of the same compound?
A: Its cell death is 69%.

Q: What about the pIC50 [6] of the same compound?
A: Its pIC50 is 5.28.

Q: And the pIC50 [7]?
A: The pIC50 was 5.17.

Q: And the pIC50 [8]?
A: The pIC50 was 7.09.

Q: And the pIC50 [9]?
A: Its pIC50 is 6.88.

Q: What about the pIC50 [10] of the same compound?
A: Its pIC50 is 5.11.

Q: And the pIC50 [11]?
A: The pIC50 was 6.35.

Q: What about the pIC50 ([12]; 72 h) of the same compound?
A: Its pIC50 is 7.24.

Q: What about the pIC50 [12] of the same compound?
A: Its pIC50 is 7.24.

Q: What about the pIC50 [13] of the same compound?
A: The pIC50 was 7.81.

Q: And the “decrease in tumor weight as compared to vehicle control group” value ([14]; C4-2, 50-30 mg/kg p.o., day 21)?
A: The value was 48.72%.

Q: And the “tumor volume as compared to vehicle control group” value ([14]; C4-2, 50-30 mg/kg p.o., days 18 to 21)?
A: Its value is “significant decrease tumor volume”.

Q: And the “tumor growth inhibition from vehicle control group” value ([14]; C4-2, 50-30 mg/kg p.o., terminal day 21)?
A: Its value is 43.25%.

Q: What about the “body weight as compared to vehicle control group” value ([14]; C4-2 study, 50-30 mg/kg p.o., starting at day 4) of the same compound?
A: The value was “significant body weight loss”.

Q: What about the “severe body weight loss” value ([14]; C4-2 study, mouse that died) of the same compound?
A: The value was about 15%.

Q: And the pKd ([15]; ERK8)?
A: The pKd was 8.26.

Q: What about the remaining binding at 1 µM ([15]; ERK8, 1 μM, read-out: % of control activity) of the same compound?
A: Its remaining binding at 1 µM is 0 to 1%.

Q: What about the pKd [16] of the same compound?
A: Its pKd is 8.55.

Q: What about the remaining binding at 1 µM ([16]; 1 μM, read-out: % of control activity) of the same compound?
A: Its remaining binding at 1 µM is 0 to 1%.

Q: What about the pIC50 [17] of the same compound?
A: The pIC50 was over 7.30.

Q: What about the pIC50 [18] of the same compound?
A: Its pIC50 is 7.75.

Q: What about the pIC50 [19] of the same compound?
A: Its pIC50 is 6.94.

Q: And the “apoptosis by Annexin V/7-AAD staining” value ([20]; 22Rv1)?
A: The value was “increased apoptosis in a dose dependent manner”.

Q: And the cell death ([20]; 22Rv1, treated for 72 hours)?
A: Its cell death is 71%.
